Assay results: patent US20090196942A1, “TOPICAL COMPOSITIONS CONTAINING CITRUS JABARA EXTRACT” (priority 2008, published 2009)

Test system: rat basophil leukemia cells (line RBL-2H3)
Test: Histamine release from calcium ionophore A23187-stimulated RBL-2H3 cells (Histamine ELISA)
Assay type: cell-based
Conditions: Calcium Ionophore 2 μM, supernatant histamine by ELISA
Procedure: Citrus Jabara extract was tested to determine its effectiveness in blocking histamine release. Histamine is released by skin and tissues in response to immune challenge. Ingredients that will block the release of histamine improve the soothing properties of skin care products into which they are incorporated. To perform the test, rat basophil leukemia cells (line RBL-2H3) were grown in Dulbecco's Modified Eagle Medium (DMEM) with 10% heat inactivated fetal calf serum, and seeded in 24 well plates at 2.5×10^5 cells/well. The cells were grown overnight and the culture media was removed from the wells and replaced with 1 ml of PIPES buffer (100 mM NaCl, 5 mM KCl, 0.4 mM MgCl2, 1 mM CaCl2, and 5.6 mM D-glucose), pH 7.2. This buffer is known to reduce the spontaneous release of histamine. Stock solutions were prepared: (1) Positive Control: A 10 mM stock solution of diosmetin in DMSO; (2) Active: Citrus Jabara powder—100 mg/ml in DMSO; (3) Calcium Ionophore: 2 mM in DMSO (Sigma Calcium Ionophore A23187). The Control was added to four separate wells varying the final concentration of the Control in each well to 1, 3, 10, and 30 μM. The Active was added to four other wells in varying percentage concentrations ranging from 0.01%, .05%, 0.1%, and 0.5% w/v in each plate. One well was left untreated with cells only. Another single well contained DMSO at a final concentration of less than 1% v/v. […]

For `COc1ccc(-c2cc(=O)c3c(O)cc(O)cc3o2)cc1O` [diosmetin], which inhibition at 30 µM is on record?
The inhibition at 30 µM was 85%.
